The results in this text go back to patent US9487818B2, “TOP2A inhibition by temozolomide and its predictive value of GBM patients survival” (COUNCIL OF SCIENTIFIC & INDUSTRIAL RESEARCH, priority 2010, dated 2016).

Assay [1] relates to U251 glioma cells. Briefly: Cell viability (MTT) assay in U251 cells transfected with TOP2A or cyclophilin siRNA. It is filed as cell-based. Conditions: MTT assay after 48 hrs. How it is done: At test for difference in the % viability of the control and TOP2A siRNA treated cells was estimated and the p values are shown: 2, 4, 8 and 16 μg/mL; p=0.0297, 0.0336, <0.0001 and 0.042 respectively.
The experiment was carried out as in “D” but the cells were treated with temozolomide. At test for difference in the % viability of the control and TOP2A siRNA treated cells was estimated and the p values are shown: 250, 500, 1000 and 2000 μM; p=0.0668, 0.0097, 0.0687 and 0.0134 respectively.
U373, U138, LN18, LN229, U343, U87, K562, U251 and SVG cells were cultured in DMEM respectively with 10% Fetal bovine serum, penicillin and streptomycin at 37° C. in a humidified atmosphere with 5% CO2. The human TOP2A and cyclophilin siRNA duplexes were designed and chemically synthesized by Dharmacon Research (Lafayette, Colo.). The SMARTpool siRNA is a mixture of four different siRNA duplexes targeting distinct coding region sequences of TOP2A (Genbank™ accession number NM_001067). […]
For chemosensitivity assays, 24 hours after plating, the cells were treated with the cytotoxic drugs and incubated at 37° C., 5% CO2 for 45 hours. […] Three hours after MTT addition, the formazan crystals were dissolved in DMSO (200 μl) and measured as absorbance at 550 nm. The absorbance by the control cells was considered to be 100% and all samples were normalized to the control cells. […]

Assay [2] deals with GBM patients. Briefly: Prospective cohort of GBM patients, survival (Kaplan Meier analysis). The class given is in vivo, human. The note with it: for median survival: radiotherapy with temozolomide. How it is done:
Kaplan-Meier survival estimates for 102 GBM patients are calculated for TOP2A transcript levels. Survival curves for the groups positive (log 2 ratio≧9.25; n=34) and negative (log 2 ratio<9.25; n=68) for TOP2A in univariate analysis.
Newly diagnosed glioblastoma patients (n=102) who underwent surgery in the two clinical centers (NIMHANS/SSIHMS) were prospectively included. Approval by the ethics committee and patient consent were obtained prior to initiation of the study. The patients were recruited based on the following inclusion criteria: 1) Adult patients (age between 18 to 65 years) with a supratentorial lobar tumor 2) Patients who underwent maximal safe resection of the tumor with minimal residue noted on post operative MRI scan 3) Patients with post operative Karnofsky's Performance Score (KPS)≧70.
All patients underwent maximal safe resection of the tumor. All patients underwent uniform adjuvant therapy consisting of radiotherapy, administered with a total dose of 59.4 Gy, given in 33 fractions, along with concomitant chemotherapy with temozolamide, administered at the dose of 100 mg/day which was continued daily for 45 days. Subsequently, five cycles of cyclical chemotherapy with temozolamide at the dose of 150 mg/sq. m body surface area for 5 days every 28 days was administered. The patients were followed up clinically and with MR imaging. The maximum follow up period was 34 months.
A cohort of 102 patients of GBM were prospectively recruited and managed by standard treatment protocol (as explained in methods). […] In this cohort, as expected, age was an important predictor of poor outcome as noted by Cox regression analysis (p=0.037; HR=1.023; B=0.022). […] The effect of TOP2A transcript level and age on survival was further evaluated by Cox proportional hazard model to elicit the independent effect of TOP2A on survival. It was noted that both age (p=0.033; HR=1.023; B=0.023) and TOP2A transcript level (p=0.035; HR=0.888; B=−0.119) were significant predictors by multivariate analysis. […]

As for `COc1cc([C@@H]2c3cc4c(cc3[C@@H](O[C@@H]3O[C@@H]5CO[C@@H](C)O[C@H]5[C@H](O)[C@H]3O)[C@H]3COC(=O)[C@H]23)OCO4)cc(OC)c1O` [etoposide], the “sensitivity of TOP2A siRNA transfected cells in comparison to cyclophilin siRNA transfected cells” value in assay [1] is “less efficiently”.

`Cn1nnc2c(C(N)=O)ncn2c1=O` [temozolomide]: in assay [2] (102 GBM patients, resection, radiotherapy with concomitant and cyclical adjuvant temozolomide), the median overall survival was determined as 16 months. In addition, the median survival in assay [2] (patients with TOP2A mRNA levels <9.25 log 2 ratio) was found to be 13 months; in assay [2] (patients with TOP2A mRNA levels ≧9.25 log 2 ratio), 22 months.
